Results: publication PMC5956890 (Journal of medicinal chemistry, 2017)
Structures can show the parent of a compound that is named as a salt. Each block holds one compound with its values, some of them ahead of it.

Key:
[1] = tested on: ANGPTL4 and PDK4 gene transcription; assay: Q-RT-PCR of ANGPTL4 and PDK4 mRNA in hBM-MSCs; assay type: cell-based, human; conditions: 3rd day after induction of adipogenesis
hBM-MSCs [2] = assay: adiponectin production during adipogenesis in hBM-MSCs; conditions: for adiponectin production during adipogenesis: compared to IDX control; for adipogenesis in hBM-MSCs: compared to control
[3] = tested on: human AR-transfected murine osteoblast precursor cell line 7F2; conditions: cited from earlier work
PPARδ [4] = target: T1, PPARδ (Homo sapiens, UniProt Q03181); assay: TR-FRET PPARδ corepressor assay; assay type: biochemical; conditions: SMRT-ID2 peptide
T1 sequence (Q03181 211-439 limits assumed): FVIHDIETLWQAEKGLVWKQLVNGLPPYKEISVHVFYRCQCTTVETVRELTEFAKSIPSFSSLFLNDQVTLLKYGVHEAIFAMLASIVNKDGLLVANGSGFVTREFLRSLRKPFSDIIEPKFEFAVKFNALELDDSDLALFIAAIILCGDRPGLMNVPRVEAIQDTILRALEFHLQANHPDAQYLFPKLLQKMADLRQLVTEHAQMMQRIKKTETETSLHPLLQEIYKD

PPARγ = target: T2, PPARγ (Homo sapiens, UniProt P37231); assay: TR-FRET competitive binding assay PPARγ; conditions: concentration-response
T2 sequence (P37231 235-505 limits assumed): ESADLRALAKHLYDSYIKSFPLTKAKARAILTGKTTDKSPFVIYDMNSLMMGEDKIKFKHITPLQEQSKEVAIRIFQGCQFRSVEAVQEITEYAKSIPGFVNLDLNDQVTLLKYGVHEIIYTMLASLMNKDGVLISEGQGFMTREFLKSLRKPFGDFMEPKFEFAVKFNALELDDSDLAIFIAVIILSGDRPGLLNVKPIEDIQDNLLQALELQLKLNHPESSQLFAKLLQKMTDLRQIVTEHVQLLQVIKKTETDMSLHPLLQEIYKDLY

PPARδ [5] = target: T3, PPARδ (Homo sapiens, UniProt Q03181); assay: TR-FRET competitive binding assay PPARδ; conditions: concentration-response
T3 sequence (Q03181 1-441): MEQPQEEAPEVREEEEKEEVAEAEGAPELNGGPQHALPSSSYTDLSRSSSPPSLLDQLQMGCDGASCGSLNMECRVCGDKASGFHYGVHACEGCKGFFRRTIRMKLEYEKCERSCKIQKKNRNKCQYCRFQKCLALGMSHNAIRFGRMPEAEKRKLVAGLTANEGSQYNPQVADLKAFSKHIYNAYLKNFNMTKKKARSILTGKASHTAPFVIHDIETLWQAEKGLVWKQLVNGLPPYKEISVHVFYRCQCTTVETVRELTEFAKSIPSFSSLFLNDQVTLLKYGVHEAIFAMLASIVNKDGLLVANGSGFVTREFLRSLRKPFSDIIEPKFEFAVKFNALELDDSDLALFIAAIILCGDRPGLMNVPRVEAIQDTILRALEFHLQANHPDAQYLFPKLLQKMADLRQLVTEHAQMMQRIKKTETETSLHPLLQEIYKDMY

hBM-MSCs [6] = assay: Oil Red O staining of lipid droplets in hBM-MSCs; assay type: cell-based, human; conditions: compared with IDX control, 7th day
[7] = tested on: STZ-induced diabetic C57BL/6J mice; assay: STZ-induced diabetes mouse model; assay type: in vivo; conditions: oral 20 mg/kg for 5 days, male C57BL/6J
PPARα = target: T4, PPARα (Homo sapiens, UniProt Q07869); assay: TR-FRET competitive binding assay PPARα; conditions: up to 20 µM
T4 sequence (Q07869 200-468 limits assumed): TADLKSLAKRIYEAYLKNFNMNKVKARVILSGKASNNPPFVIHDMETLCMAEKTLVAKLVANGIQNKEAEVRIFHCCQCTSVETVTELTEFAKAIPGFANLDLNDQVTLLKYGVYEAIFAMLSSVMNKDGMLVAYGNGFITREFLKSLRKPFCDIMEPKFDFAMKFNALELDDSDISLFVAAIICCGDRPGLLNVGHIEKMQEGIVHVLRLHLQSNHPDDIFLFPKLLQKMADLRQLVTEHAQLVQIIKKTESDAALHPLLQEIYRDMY

PPARδ [8] = target: T1, PPARδ; assay: TR-FRET PPARδ coactivator assay; assay type: biochemical; conditions: compound alone

SMILES: COC(=O)c1sccc1S(=O)(=O)Nc1ccc(Nc2ccccc2)cc1OC [Compound 23, 3-[[[2-methoxy-4-(phenylamino)phenyl]-amino]sulfonyl]-2-thiophenecarboxylic acid methyl ester]
- ANGPTL4 mRNA level [1]: did not affect ANGPTL4 and PDK4 mRNA levels
- PDK4 mRNA level [1]: did not affect ANGPTL4 and PDK4 mRNA levels

SMILES: CCNC(=O)[C@H]1O[C@@H](n2cnc3c(N)ncnc32)[C@H](O)[C@@H]1O [Compound 15, 5′-(N-ethylcarboxamido) adenosine]
- adiponectin production during adipogenesis (hBM-MSCs [2]): no significant effect
- adipogenesis in hBM-MSCs (hBM-MSCs [2]): did not significantly promote adipogenesis
- increase of adipocyte differentiation [3]: 20–30%

SMILES: O=C(NCCS(=O)(=O)c1ccc(C(F)(F)F)cn1)c1ccc(Cl)cc1 [Compound 24, 4-chloro-N-[2-[[5-(trifluoromethyl)-2-pyridinyl]sulfonyl]ethyl]benzamide]
- interaction between PPARδ and corepressor peptide (PPARδ [4]): significantly promoted the recruitment of the corepressor peptide
- ANGPTL4 mRNA level [1]: did not affect ANGPTL4 and PDK4 mRNA levels
- PDK4 mRNA level [1]: did not affect ANGPTL4 and PDK4 mRNA levels

SMILES: OC[C@H]1O[C@@H](n2cnc3c(NC4CCCC4)nc(Cl)nc32)[C@H](O)[C@@H]1O [Compound 14, 2-chloro-N^6-cyclopentyladenosine]
- adiponectin production during adipogenesis (hBM-MSCs [2]): no significant effect
- adipogenesis in hBM-MSCs (hBM-MSCs [2]): did not significantly promote adipogenesis
- increase of adipocyte differentiation [3]: 20–30%

- PPARγ binding activity (PPARγ): showed PPARγ binding activity
SMILES: COc1ccc(Cl)cc1C(=O)NCCc1ccc(S(=O)(=O)NC(=O)NC2CCCCC2)cc1 [glibenclamide]

SMILES: CCCn1cc2c(nc(NC(=O)Nc3ccc(OC)cc3)n3nc(-c4ccco4)nc23)n1 [Compound 18, N-[2-(2-furanyl)-8-propyl-8H-pyrazolo[4,3-e][1,2,4]triazolo[1,5-c]pyrimidin-5-yl]-N′-(4-methoxyphenyl)-urea]
- adipogenesis in hBM-MSCs (hBM-MSCs [2]): no effect on adipogenesis

SMILES: CCNC(=O)[C@H]1O[C@@H](n2cnc3c(N)nc(NCCc4ccc(CCC(=O)O)cc4)nc32)[C@H](O)[C@@H]1O [Compound 16, 2-p-(2-carboxyethyl)phenethylamino-5′-N-ethylcarboxamidoadenosine hydrochloride hydrate]
- adiponectin production during adipogenesis (hBM-MSCs [2]): no significant effect

SMILES: Nc1ncnc2c1ncn2[C@@H]1O[C@H](CO)[C@@H](O)[C@H]1O [adenosine]
- adiponectin production during adipogenesis (hBM-MSCs [2]): no significant effect

SMILES: CNC(=O)[C@H]1S[C@@H](n2cnc3c(NCc4cccc(I)c4)nc(Cl)nc32)[C@H](O)[C@@H]1O [Compound 1d]
- PPARδ binding activity (PPARδ [5]): most potent inhibitor among A3 AR agonists

SMILES: Cn1c(=O)c2c(ncn2C)n(C)c1=O [caffeine]
- adipogenesis in hMSCs (hBM-MSCs [2]; 1 mM): inhibited adipogenesis
- lipid droplets in differentiated adipocytes (ORO staining) (hBM-MSCs [6]): decreased them

SMILES: Cc1cc(SCc2sc(-c3ccc(C(F)(F)F)cc3)nc2C)ccc1OCC(=O)O [Compound 22, 2-[2-methyl-4-[[[4-methyl-2-[4-(trifluoromethyl)phenyl]-5-thiazolyl]methyl]thio]phenoxy]acetic acid]
- ANGPTL4 mRNA level [1]: significantly increased ANGPTL4 and PDK4 gene transcription
- PDK4 mRNA level [1]: significantly increased ANGPTL4 and PDK4 gene transcription

- PPARγ binding activity (PPARγ): very weak binding activity
- replacement of labeled PPARα ligand binding (PPARα): ≤ 50%
SMILES: CNC(=O)[C@H]1S[C@@H](n2cnc3c(NCc4cccc(I)c4)ncnc32)[C@H](O)[C@@H]1O [Compound 1c]
- serum glucose levels [7]: significantly decreased serum glucose levels
- serum triglyceride levels [7]: downregulated serum triglyceride levels
- recruitment of labeled coactivator peptide to PPARδ (PPARδ [8]): no effect on the recruitment of the labeled coactivator peptide
- interaction between PPARδ and corepressor peptide (PPARδ [4]): enhanced the interaction of PPARδ with the corepressor peptide

SMILES: CNC(=O)[C@@]12C[C@@H]1[C@@H](n1cnc3c(NCc4cccc(Cl)c4)nc(C#Cc4ccc(F)c(F)c4)nc31)[C@H](O)[C@@H]2O [Compound 17, (1S,2R,3S,4R,5S)-4-[6-[[(3-chlorophenyl)methyl]-amino]-2-[2-(3,4-difluorophenyl)ethynyl]-9H-purin-9-yl]-2,3-dihydroxy-N-methylbicyclo[3.1.0]hexane-1-carboxamide]
- adipogenesis in hBM-MSCs (hBM-MSCs [2]): no effect on adipogenesis
